The text below walks through data of EPA's ToxValDB 9.5.

Where only a bound is given, the exact number is not on record here.

The test system of this data set is Rattus norvegicus. The conditions noted are these: oral.
Where [1] appears, read: subchronic, duration: 90 days, gavage, M/F, Wistar, Clinical Observation: Salivation + Body Weight Changes: Weight gain decrease + Food Consumption: decrease + Urinalysis: Ket increase, ….
[2] abbreviates: subchronic, gavage, M, Sprague-Dawley, Deaths + Clinical Observation: Salivation Abnormal resp. noise Irregular respiration Loose stool DiarrheaSoiled fur, nasal/urogenital region….

Compound `N#Cc1c(Cl)c(Cl)c(C#N)c(Cl)c1Cl` [p-Phthalodinitrile, tetrachloro-] showed an NOEL (subchronic, gavage, Sprague-Dawley) of 1000 mg/kg-day.

Consider `CC(=O)CCC=C(C)C` [6-Methyl-5-hepten-2-one], for which, under setting [1], the NOAEL worked out at 50 mg/kg-day and the NOEL is less than 50 mg/kg-day.

With `O=C(O)c1cc(N=Nc2ccc(S(=O)(=O)Nc3ccccn3)cc2)ccc1O` [Sulfasalazine], for the setting “subchronic, duration: 13 weeks, gavage, M/F, Fischer 344, Body Weight Changes: decrease + Blood Chemistry: TSH increase T3 decrease T4 decrease + Absolute Organ Weight: Right kidney increase + …”, the NOEL is less than 84 mg/kg-day.

Consider `C=CCCCCCC` [1-Octene], for which the NOEL (subchronic, duration: 90 days, gavage, M/F, Urinalysis: Volume increase + Blood Chemistry: Cl decrease, CRE increase + Absolute Organ Weight: Kidney increase + Relative Organ Weight: …) stood at 50 mg/kg-day.

Consider `CC(C)=CCl` [2,2-Dimethylvinyl chloride], for which, under “subchronic, duration: 13 weeks, gavage, M/F, Fischer 344, Deaths + Clinical Observation: Rough hair Inactivity Perianal wetness + Body Weight Changes: decrease + Histopathology: Liver/periportal-…”, the NOEL is 125 mg/kg-day.

With `CCCC1CCC(C2CCC(=O)CC2)CC1` (stereo not drawn) [4'-Propyl[1,1'-bi(cyclohexane)]-4-one], the NOEL (short-term, duration: 28 days, gavage, M/F, Clinical Observation: Salivation + Blood Chemistry: IP increase, CRN increase, GPT increase, BIL increase, TP increase, T-CHO increase, …) was found to be 8 mg/kg-day.

For the compound `CCn1cc(C(=O)O)c(=O)c2cc(F)c(N3CCNCC3)nc21.CCn1cc(C(=O)O)c(=O)c2cc(F)c(N3CCNCC3)nc21.CCn1cc(C(=O)O)c(=O)c2cc(F)c(N3CCNCC3)nc21.O.O`, the NOEL (short-term, duration: 28 days, gavage, M/F, Sprague-Dawley, Clinical Observation: Loose stool + Body Weight Changes: Body weight gain decrease + Food Consumption: decrease + Urinalysis: White crystal…) was 120 mg/kg-day.

Regarding `CCCCC(CC)C(=O)OOC(C)(C)C1CCCCC1` (stereo not drawn) [2-Cyclohexylpropan-2-yl 2-ethylhexaneperoxoate], the NOEL (short-term, duration: 28 days, gavage, M/F, Clinical Observation: Salivation + Blood Chemistry: GLUC decrease, TP increase, CRN decrease, BIL increase, T-CHO increase + Absolute Organ …) is less than 8 mg/kg-day.

As to `CCCOCCOCCO` [2-(2-Propoxyethoxy)ethanol], for the setting “subchronic, duration: 6 weeks, gavage, M, COBS, CD:BR, Clinical Observation: Narcosis(initial period only) + Body Weight Changes: Terminal body weight decrease + Food Consumption: decrease(day 3 …”, the NOAEL amounted to 814 mg/kg-day.

With `CCCCOCCOCCO` [2-(2-Butoxyethoxy)ethanol], the NOAEL (chronic, duration: 91 days, drinking water, M/F, Fischer 344, Body Weight Changes: Terminal body weight decrease + Food Consumption: decrease + Water Consumption: decrease + Hematology: RBC decrease, …) stood at 250 mg/kg-day.

With `O=C1c2ccccc2C(=O)C1c1ccc2ccccc2n1` [D & C Yellow 11], the NOEL by setting is: (subchronic, diet, F, Fischer 344, Body Weight Changes: decrease + Absolute Organ Weight: Liver increase, Lung increase + Relative Organ Weight: Liver increase, Lung increase…) less than 37 mg/kg-day; (subchronic, diet, M/F, Fischer 344, Body Weight Changes: decrease + Absolute Organ Weight: Liver increase, Lung increase + Relative Organ Weight: Liver increase, Lung increase…) less than 48 mg/kg-day.

Consider `C=C(C)C(=O)NCCN1CCNC1=O` [2-Methyl-N-[2-(2-oxoimidazolidin-1-yl)ethyl]prop-2-enamide], for which, where the note is “short-term, duration: 28 days, gavage, M/F, Deaths + Clinical Observation: Salivation Abnormal breathing + Relative Organ Weight: Kidney increase + Necropsy: Stomach- Raised, limiting…”, the NOEL stood at 200 mg/kg-day.

For the compound `c1ccc2c(c1)sc1ccccc12` [Dibenzothiophene], the NOEL (short-term, duration: 28 days, gavage, M/F, Sprague-Dawley, Clinical Observation: Salivation Soiled perigenital fur + Functional Observational Battery: Locomotor activity decrease + Body Weight …) was 3 mg/kg-day.

With `O=C1C=CC(=O)N1c1cccc(N2C(=O)C=CC2=O)c1` [N,N'-1,3-Phenylenedimaleimide], under setting [2], the NOAEL is 15 mg/kg-day and the NOEL was less than 15 mg/kg-day.

As for `O=c1c(O)c(-c2ccc(O)cc2O)oc2cc(O)cc(O)c12` [Morin], the NOEL was 356 mg/kg-day (subchronic, diet, F, Fischer 344, Body Weight Changes: decrease + Hematology: WBC increase + Blood Chemistry: BUN increase , TP decrease, TG decrease , Alb increase , Cho …) and 0.625% (subchronic, diet, M/F, Fischer 344, Body Weight Changes: decrease + Hematology: WBC increase + Blood Chemistry: BUN increase , TP decrease, TG decrease , Alb increase , Cho …).

Regarding `O=[N+]([O-])c1ccc(NCCO)c(OCCO)c1` [HC Yellow 4], the NOEL (subchronic, duration: 13 weeks, diet, M/F, Fischer 344, Body Weight Changes: decrease + Relative Organ Weight: Right kidney increase, Liver increase, Lungs increase, Thymus increase, Testis …) is less than 240 mg/kg-day.

`CC(C)(Sc1cc(C(C)(C)C)c(O)c(C(C)(C)C)c1)Sc1cc(C(C)(C)C)c(O)c(C(C)(C)C)c1` [Probucol]: under “chronic, duration: 91 days, gavage, Sprague-Dawley”, the NOAEL was greater than 2250 mg/kg-day.

In the case of `CC1CC(CC2CCC(N)C(C)C2)CCC1N` (stereo not drawn) [Bis(4-amino-3-methylcyclohexyl)methane], the NOAEL (subchronic, duration: 90 days, gavage, M/F, Wistar, Deaths: None (There were dead animals due to the intubation error) + Clinical Observation: Deteriorated general state Discolored body region…) is 2.5 mg/kg-day.

In the case of `COc1ccc(C[C@@H](C)NC[C@H](O)c2ccc(O)c(NC=O)c2)cc1.COc1ccc(C[C@@H](C)NC[C@H](O)c2ccc(O)c(NC=O)c2)cc1.O=C(O)/C=C/C(=O)O` [Formoterol hemifumarate], the NOEL is, setting by setting: (subchronic, duration: 35 days, gavage, F, Sprague-Dawley, Deaths + Clinical Observation: Tachycardia Tachypnea Salivation + Body Weight Changes: Body weight gain decrease + Blood Chemistry: GLUC …) 0.3 mg/kg-day; (subchronic, duration: 35 days, gavage, M, Sprague-Dawley, Deaths + Clinical Observation: Tachycardia Tachypnea Salivation + Body Weight Changes: Body weight gain decrease + Blood Chemistry: GLUC …) 0.03 mg/kg-day.

Consider `CCCCC(CC)COC(=O)C1CC=CCC1C(=O)OCC(CC)CCCC` (stereo not drawn) [Bis(2-ethylhexyl) 4-cyclohexene-1,2-dicarboxylate], for which the NOEL (subchronic, duration: 42 days, gavage, M, CD(SD), Hematology: WBC decrease, LYMPH decrease, NEUT decrease, Large unstained cell decrease + Absolute Organ Weight: Kidney increase + Relative …) came out at 100 mg/kg-day.

Take `SCC1CSC(CS)CS1` (stereo not drawn) [1,4-Dithiane-2,5-dimethanethiol]: the NOEL (short-term, duration: 28 days, gavage, M/F, Clinical Observation: Salivation Ataxic gait Locomotor activity decrease + Body Weight Changes: Body weight gain decrease + Food Consumption…) worked out at 20 mg/kg-day.

Consider `Cc1ccc(C)c(N)c1` [2,5-Dimethylaniline], for which the NOEL runs as follows: (short-term, duration: 28 days, gavage, F, Sprague-Dawley, Clinical Observation: Staggering gait Lacrimation Salivation + Body Weight Changes: Body weight gain decrease + Food Consumption: decrease…) 12 mg/kg-day; (short-term, duration: 28 days, gavage, M, Sprague-Dawley, Clinical Observation: Staggering gait Lacrimation Salivation + Body Weight Changes: Body weight gain decrease + Food Consumption: decrease…) less than 12 mg/kg-day.

`OCCOc1ccccc1` [2-Phenoxyethanol]: the NOAEL (subchronic, duration: 90 days, gavage, M/F, Clinical Observation: Lack of grooming Lethargy Prostration + Body Weight Changes: decrease + Food Consumption: decrease + Water Consumption…) worked out at 80 mg/kg-day.

For `O=[N+]([O-])C(Br)=Cc1ccccc1` [beta-Bromo-beta-nitrostyrene], the NOEL (subchronic, gavage, M/F, Fischer 344, Deaths + Body Weight Changes: decrease>150 af>>300 + Hematology: RBC increase, WBC increase, Seg increase, Ret increase + Blood Chemistry: …) is less than 37 mg/kg-day.

Take `Nc1ccc(Oc2cccc(Oc3ccc(N)cc3)c2)cc1` [1,3-Phenylenedi(4-aminophenyl ether)]: the NOEL (short-term, duration: 28 days, gavage, M/F, Deaths + Clinical Observation: Piloerection Abnormal distention Lethargy Loss of hair + Body Weight Changes: Weight gain decrease + Food …) was determined as 10 mg/kg-day.

Regarding `O=C(Cl)c1ccccc1Cl` [Benzoyl chloride, 2-chloro-], for the setting “subchronic, duration: 42 days, gavage, M, CD(SD), Clinical Observation: Salivation Soft/mucous stool Soiled perianal/perigenital fur + Body Weight Changes: Weight gain decrease + Food …”, the NOEL stood at 40 mg/kg-day.

For `[Cl-].[Cs+]` [Caesium chloride], the NOEL (subchronic, duration: 90 days, gavage, M/F, Sprague-Dawley, Deaths + Clinical Observation: Irritability Convulsion, preening Locomotor activity increase + Body Weight Changes: decrease + Food …) was less than 10 mg/kg-day.

For orientation: NOAEL means the highest tested level that showed no adverse finding.
